From PMC6591457, “Staphylococcus aureus Uses the Bacilliredoxin (BrxAB)/Bacillithiol Disulfide Reductase (YpdA) Redox Pathway to Defend Against Oxidative Stress Under Infections” (Frontiers in Microbiology, 2019)

What was measured:
[1] = target: T1, YpdA (Staphylococcus aureus, UniProt A0A0H2WWS2); assay: NADPH consumption at […] nm; assay type: biochemical; settings: 12.5 uM YpdA, 40 uM BSSB, 500 uM NADPH, 20 mM Tris, 1.25 mM EDTA, pH 8.0
T1 construct: gene SACOL1520; full-length, His6-tagged, pET11b, E. coli BL21(DE3) pLysS, Ni-NTA purified, prereduced with DTT

[2] = target: T1, YpdA; assay: UV-visible spectrum of purified enzyme; assay type: binding; settings: co-purified flavin, absorbance peaks at 375 and 450 nm

T1 sequence (A0A0H2WWS2 entry or part of it): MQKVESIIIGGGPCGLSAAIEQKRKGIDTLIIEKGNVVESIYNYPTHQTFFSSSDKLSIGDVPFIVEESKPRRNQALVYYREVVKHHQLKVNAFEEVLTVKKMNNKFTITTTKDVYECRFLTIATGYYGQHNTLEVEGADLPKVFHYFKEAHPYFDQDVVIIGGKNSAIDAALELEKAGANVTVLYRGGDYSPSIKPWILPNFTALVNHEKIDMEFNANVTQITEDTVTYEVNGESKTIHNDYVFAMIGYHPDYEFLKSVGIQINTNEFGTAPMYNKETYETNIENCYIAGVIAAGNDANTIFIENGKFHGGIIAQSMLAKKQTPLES

Structure (SMILES)	NADPH consumption at 340 nm [1]	UV-visible spectrum of purified enzyme [2]
N[C@@H](CSSC[C@H](N)C(=O)N[C@H]1[C@@H](O[C@@H](CC(=O)O)C(=O)O)O[C@H](CO)[C@@H](O)[C@@H]1O)C(=O)N[C@H]1[C@@H](O[C@@H](CC(=O)O)C(=O)O)O[C@H](CO)[C@@H](O)[C@@H]1O [BSSB]	Incubation of YpdA protein with BSSB resulted in significant and fast consumption of NADPH	
Cc1cc2nc3c(=O)[nH]c(=O)nc-3n(C[C@H](O)[C@H](O)[C@H](O)COP(=O)(O)OP(=O)(O)OC[C@H]3O[C@@H](n4cnc5c(N)ncnc54)[C@H](O)[C@@H]3O)c2cc1C [FAD]		UV-visible spectrum revealed the presence of the FAD co-factor
NC(=O)C1=CN([C@@H]2O[C@H](COP(=O)(O)OP(=O)(O)OC[C@H]3O[C@@H](n4cnc5c(N)ncnc54)[C@H](OP(=O)(O)O)[C@@H]3O)[C@@H](O)[C@H]2O)C=CC1 [NADPH]	Purified YpdA is able to reduce BSSB back to BSH with electrons from NADPH	
